Assay results published in PubChem BioAssay AID1963870 (Molecular Pharmacology Branch, DTP, NCI, 2024).

Test system: 292921-168-R-J2-PDC KRAS tumor spheroid viability
Experiment: Anticancer human tumor 292921-168-R-J2-PDC patient-derived pancreatic carcinoma cell line growth inhibition [KRAS2]
Conditions: spheroids with HUVEC and MSC; for IC50: curve of first compound; for viability, T/C: stronger effect = lower value
Procedure, shortened: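 Combination screen of spheroid viability in tumor-cell co-cultures with endothelial (HUVEC) and mesenchymal stem cell stroma. Each agent was tested in half-log dilutions, topping at clinical Cmax or at 10 microM without a known Cmax.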

[1] = second compound 0.1 µM, first compound 0.0316 µM
[2] = second compound 0.1 µM, first compound 0.1 µM
[3] = second compound 0.1 µM, first compound 0.316 µM
[4] = second compound 0.1 µM, first compound 1 µM
[5] = second compound 0.1 µM, first compound 3.16 µM
[6] = second compound 0.316 µM, first compound 0.0316 µM
[7] = second compound 0.316 µM, first compound 0.1 µM
[8] = second compound 0.316 µM, first compound 0.316 µM
[9] = second compound 0.316 µM, first compound 1 µM
[10] = second compound 0.316 µM, first compound 3.16 µM
[11] = second compound 1 µM, first compound 0.0316 µM
[12] = second compound 1 µM, first compound 0.1 µM
[13] = second compound 1 µM, first compound 0.316 µM
[14] = second compound 1 µM, first compound 1 µM
[15] = second compound 1 µM, first compound 3.16 µM
[16] = second compound 3.16 µM, first compound 0.0316 µM
[17] = second compound 3.16 µM, first compound 0.1 µM
[18] = second compound 3.16 µM, first compound 0.316 µM
[19] = second compound 3.16 µM, first compound 1 µM
[20] = second compound 3.16 µM, first compound 3.16 µM
[21] = second compound 10 µM, first compound 0.0316 µM
[22] = second compound 10 µM, first compound 0.1 µM
[23] = second compound 10 µM, first compound 0.316 µM
[24] = second compound 10 µM, first compound 1 µM
[25] = second compound 10 µM, first compound 3.16 µM
[26] = second compound 0.1 µM, first compound 10 µM
[27] = second compound 0.316 µM, first compound 10 µM
[28] = second compound 1 µM, first compound 10 µM
[29] = second compound 3.16 µM, first compound 10 µM
[30] = second compound 10 µM, first compound 10 µM
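Also: drug exposure lasted seven days after spheroids formed for three days.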
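For viability, T/C in this document: percent of DMSO vehicle control viability which is 100%.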

Row | SMILES | IC50 (second compound 0.1 µM) [nM] | IC50 (second compound 0.316 µM) [nM] | IC50 (second compound 1 µM) [nM] | IC50 (second compound 3.16 µM) [nM] | IC50 (second compound 10 µM) [nM] | viability, T/C [1] [%] | viability, T/C [2] [%] | viability, T/C [3] [%] | viability, T/C [4] [%] | viability, T/C [5] [%] | viability, T/C [6] [%] | viability, T/C [7] [%] | viability, T/C [8] [%] | viability, T/C [9] [%] | viability, T/C [10] [%] | viability, T/C [11] [%] | viability, T/C [12] [%] | viability, T/C [13] [%] | viability, T/C [14] [%] | viability, T/C [15] [%] | also measured
1 | CC1COCCN1c1cc(-c2ccnn2C)c2ccnc(-c3ccn[nH]3)c2n1 (stereo not given) + C=CC(=O)N1CCN(c2nc(=O)n(-c3c(C)ccnc3C(C)C)c3nc(-c4c(O)cccc4F)c(F)cc23)C(C)C1 | < 10 | < 10 | < 10 | < 10 | < 10 | 19.9 | 15 | 13.6 | 16.1 | 18.3 | 20.1 | 13.5 | 14.6 | 17.5 | 20 | 16.8 | 12.9 | 15.5 | 18.7 | 23.2 | viability, T/C (second compound 0.1 µM, first compound 0.01 µM): 41.9%; viability, T/C (second compound 0.316 µM, first compound 0.01 µM): 32.8%; viability, T/C (second compound 1 µM, first compound 0.01 µM): 30.3%; viability, T/C (second compound 3.16 µM, first compound 0.01 µM): 17.1%; viability, T/C [16]: 12%; viability, T/C [17]: 12.4%; viability, T/C [18]: 16.8%; viability, T/C [19]: 21.8%; viability, T/C [20]: 24.1%; viability, T/C (second compound 10 µM, first compound 0.01 µM): 12.1%; viability, T/C [21]: 12.7%; viability, T/C [22]: 14.7%; viability, T/C [23]: 19.1%; viability, T/C [24]: 21.3%; viability, T/C [25]: 24.8%
2 | CCNC(=O)CC1N=C(c2ccc(Cl)cc2)c2cc(OC)ccc2-n2c(C)nnc21 (stereo not given) + C=CC(=O)N1CCN(c2nc(=O)n(-c3c(C)ccnc3C(C)C)c3nc(-c4c(O)cccc4F)c(F)cc23)C(C)C1 | 6090 | 6080 | 4240 | 530 | < 31.6 | 111 | 104 | 77.2 | 63.1 | 60.7 | 117 | 103 | 81.1 | 68.8 | 63 | 109 | 97 | 77.6 | 65.4 | 54.8 | viability, T/C [26]: 43.4%; viability, T/C [27]: 41.5%; viability, T/C [28]: 40.7%; viability, T/C [16]: 78.2%; viability, T/C [17]: 69.1%; viability, T/C [18]: 53.1%; viability, T/C [19]: 43.8%; viability, T/C [20]: 35.6%; viability, T/C [29]: 26.4%; viability, T/C [21]: 29.1%; viability, T/C [22]: 26.2%; viability, T/C [23]: 23.8%; viability, T/C [24]: 16.8%; viability, T/C [25]: 9.64%; viability, T/C [30]: 6.83%
3 | Cn1nccc1Nc1nccc(-c2cc3c(s2)C(C)(C)N(CCN2CCOCC2)C3=O)n1 + C=CC(=O)N1CCN(c2nc(=O)n(-c3c(C)ccnc3C(C)C)c3nc(-c4c(O)cccc4F)c(F)cc23)C(C)C1 | 122 | 131 | 111 | 77.7 | < 31.6 | 95.1 | 55.6 | 23.7 | 12.3 | 11.2 | 107 | 58.5 | 21.9 | 13.7 | 12.4 | 115 | 52.7 | 22.5 | 15.2 | 12.5 | viability, T/C [26]: 11.1%; viability, T/C [27]: 12.6%; viability, T/C [28]: 14.4%; viability, T/C [16]: 76.6%; viability, T/C [17]: 42.5%; viability, T/C [18]: 19.2%; viability, T/C [19]: 14.3%; viability, T/C [20]: 13.8%; viability, T/C [29]: 17.2%; viability, T/C [21]: 25.2%; viability, T/C [22]: 18%; viability, T/C [23]: 14.6%; viability, T/C [24]: 14.4%; viability, T/C [25]: 15.1%; viability, T/C [30]: 19.5%
